{"source": "patent US9216942B2", "about": "“Compounds and uses thereof for treating inflammation and modulating immune responses” (PURAPHARM COMPANY LIMITED, priority 2012, dated 2015)", "key": {"[1]": {"system": "LPS-induced TNF-α production", "experiment": "Inhibition of LPS-induced TNF-α production in PBMac (ELISA)", "type": "cell-based, Human", "details": "for inhibition of LPS-induced TNF-α protein production: PBMac pre-incubated with compound 18 h, then 10 ng/ml LPS for 24 h, ELISA of supernatant, mean±S.D., compound concentration not given (25 and 50 ug/ml tested)", "description": "FIGS. 2 (A-C) show the inhibition of LPS-induced TNF-α production by Compound A1, Compound A2 and Cim A. PBMac cells are incubated with (A) 25 and 50 ug/ml A1 or (B) 25 and 50 ug/ml A2 or (C) 25 and 50 ug/ml Cim A for 18 h prior to the addition of 10 ng/ml LPS for another 24 h. The culture supernatants are collected and assayed for TNF-α production by enzyme-linked immunosorbent assay (ELISA). The results shown are the mean values±standard derivation (S.D.) of at least three independent experiments, with cells obtained from different donors. * P<0.05, ** P<0.01 compared with the control.\nEndotoxin (lipopolysachamide, LPS) from E. coli was purchased from Sigma and used as an inducer of TNF-α expression. Dexamethasone (Sigma) was used as a control drug to inhibit the LPS induction of TNF-α.\n(§1) Human peripheral blood monocytic cells (PBMC) were isolated from the buffy coat of healthy donor blood supplied by Hong Kong Red Cross by Ficoll-Paque (Amersham Pharmacia Biotech, Piscataway, N.J.) density gradient centrifugation as described in our previous reports. In brief, the buffy coat was spun at 3000 rotations per min (rpm) for 15 min to separate the blood cells and the plasma. The heat inactivated serum was filtered for future use.\n(§2) The cell layer was diluted with phosphate buffered saline (PBS) in a ratio of 1:1. The diluted cells were overlaid on Ficoll-Paque slowly and centrifuged at 2300 rpm for 20 min for separation of mononuclear cells from erythrocytes. The mononuclear cell layer was removed and washed with RPMI 1640 medium until the supernatant was clear.\n(§3) The cells were finally resuspended in RPMI 1640 medium supplemented with 5% autologous serum and cultured for 1 hr. The non-adherent cells were removed afterwards and the remaining adherent cells were further incubated for another 24 hr at 37° C. in 5% carbon dioxide (CO2).\n(§4) The adherent monocytic cells were detached and seeded onto tissue culture plates and incubated for another 7-14 days in order to differentiate the primary blood monocytic cells to primary blood macrophages (PBMac).\nCulture supernatants of the LPS-treated PBMac, with or without pretreatment of Cim A, Compound A1 or Compound A2, were collected at different time intervals and stored at −70° C. The levels of the secreted TNF-α were measured by ELISA kits specific for the cytokine (R&D system, Minneapolis, Minn.)."}, "[2]": {"system": "PBMac", "experiment": "MTT cytotoxicity assay on PBMac", "type": "cell-based, Human", "details": "25-75 ug/ml, time course of 48 h", "description": "Incubation of PBMac cells with the compounds at various concentrations produces no significant difference in the metabolic activities of the cells, when compared to control. Cytotoxic effects of Compounds A1, A2 and Cim A (25-75 ug/ml) on PBMac are determined by MTT (3-[4,5-dimethylthiazol-2-yl]-2,5-di-phenyltetrazolim bromide) assays over a time course of 48 h.\nas §1, §2, §3, §4"}}, "data": [{"smiles": "COc1ccc(/C=C/C(=O)OCC(=O)Cc2ccc(O)c(O)c2)cc1O", "note": "[Cim A, Cimiracemate A, reference compound]", "values": [{"measurement": "inhibition of LPS-induced TNF-α protein production", "setting": "[1]", "result": "50±19", "unit": "%"}, {"measurement": "cytotoxic effects (MTT, metabolic activity of cells vs control)", "setting": "[2]", "result": "almost no cytotoxic effects"}]}, {"smiles": "O=C(COC(=O)/C=C/c1ccc(O)c(O)c1)Cc1cccc(O)c1", "note": "[Compound A1]", "values": [{"measurement": "inhibition of LPS-induced TNF-α protein production", "setting": "[1]", "result": "26±15", "unit": "%"}, {"measurement": "cytotoxic effects (MTT, metabolic activity of cells vs control)", "setting": "[2]", "result": "almost no cytotoxic effects"}]}, {"smiles": "COc1ccc(/C=C/C(=O)OCC(=O)Cc2ccc(O)c(O)c2)cc1", "note": "[Compound A2]", "values": [{"measurement": "inhibition of LPS-induced TNF-α protein production", "setting": "[1]", "result": "67±10", "unit": "%"}, {"measurement": "activity in inhibiting LPS-induced TNF-α production, higher than that of Cim A", "setting": "[1]; compound at 50 μg/ml, relative to Cim A", "result": 34, "unit": "%"}, {"measurement": "cytotoxic effects (MTT, metabolic activity of cells vs control)", "setting": "[2]", "result": "almost no cytotoxic effects"}]}]}
